Assay results as given in BindingDB's records for doi:10.1074/jbc.M606873200 (Parke-Davis Pharmaceutical Research, 1997).

Legend:
Experiment in all cases: Kinase Inhibition Assay
[1] = target: Platelet-derived growth factor receptor alpha/beta (Homo sapiens, UniProt P09619+P16234)
Protocol: (§1) The kinase activity is the enzyme activity that catalyzes the transfer of the terminal phosphate from [gamma-32P] ATP to the poly (E: Y) substrate. Nonspecific activity was defined as radioactivity retained on the filters following incubation of samples without enzyme. Specific activity was determined as total activity minus nonspecific activity.

[2] = target: Proto-oncogene tyrosine-protein kinase Src (Homo sapiens, UniProt P12931)
Protocol: as §1

[3] = target: Fibroblast growth factor receptor 1 (Homo sapiens, UniProt P11362)
Protocol: as §1

[4] = target: Platelet-derived growth factor receptor beta (Homo sapiens, UniProt P09619)
Protocol: as §1

[5] = target: Cyclin-dependent kinase 4 (Homo sapiens, UniProt P11802)
Protocol: as §1

Protein kinase C (PKC) = target: Protein kinase C (PKC)
Protocol: as §1

[6] = target: Mitogen-activated protein kinase 1/3 (Homo sapiens, UniProt P27361+P28482)
Protocol: as §1

Chain of Platelet-derived growth factor receptor beta (P09619 whole entry): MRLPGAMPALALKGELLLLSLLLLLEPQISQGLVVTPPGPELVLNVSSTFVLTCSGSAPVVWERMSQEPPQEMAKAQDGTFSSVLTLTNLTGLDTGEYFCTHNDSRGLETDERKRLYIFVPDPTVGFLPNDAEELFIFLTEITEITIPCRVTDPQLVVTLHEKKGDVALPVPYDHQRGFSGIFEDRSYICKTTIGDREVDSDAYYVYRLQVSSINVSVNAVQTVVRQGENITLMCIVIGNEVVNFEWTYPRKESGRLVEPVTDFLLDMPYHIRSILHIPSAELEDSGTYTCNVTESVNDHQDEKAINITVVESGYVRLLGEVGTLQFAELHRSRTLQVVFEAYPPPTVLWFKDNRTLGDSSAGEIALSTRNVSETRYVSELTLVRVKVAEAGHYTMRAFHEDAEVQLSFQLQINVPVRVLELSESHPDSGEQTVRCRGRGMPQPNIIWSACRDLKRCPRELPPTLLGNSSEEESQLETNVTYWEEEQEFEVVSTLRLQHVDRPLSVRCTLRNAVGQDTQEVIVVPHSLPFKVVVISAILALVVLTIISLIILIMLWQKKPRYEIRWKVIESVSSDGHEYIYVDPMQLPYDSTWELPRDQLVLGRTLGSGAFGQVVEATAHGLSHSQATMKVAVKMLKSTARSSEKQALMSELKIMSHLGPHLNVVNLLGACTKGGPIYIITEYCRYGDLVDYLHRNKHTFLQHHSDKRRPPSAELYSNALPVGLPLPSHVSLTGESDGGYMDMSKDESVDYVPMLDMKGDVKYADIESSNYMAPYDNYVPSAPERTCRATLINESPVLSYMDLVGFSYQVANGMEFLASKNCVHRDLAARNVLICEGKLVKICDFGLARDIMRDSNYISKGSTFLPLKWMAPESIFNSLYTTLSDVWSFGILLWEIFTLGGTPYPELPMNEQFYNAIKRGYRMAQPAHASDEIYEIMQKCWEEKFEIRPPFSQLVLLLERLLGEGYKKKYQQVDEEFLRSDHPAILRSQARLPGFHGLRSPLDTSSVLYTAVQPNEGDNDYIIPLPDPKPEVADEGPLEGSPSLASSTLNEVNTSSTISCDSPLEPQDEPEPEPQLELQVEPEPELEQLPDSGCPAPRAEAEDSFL
Chain of Cyclin-dependent kinase 4 (P11802 whole entry): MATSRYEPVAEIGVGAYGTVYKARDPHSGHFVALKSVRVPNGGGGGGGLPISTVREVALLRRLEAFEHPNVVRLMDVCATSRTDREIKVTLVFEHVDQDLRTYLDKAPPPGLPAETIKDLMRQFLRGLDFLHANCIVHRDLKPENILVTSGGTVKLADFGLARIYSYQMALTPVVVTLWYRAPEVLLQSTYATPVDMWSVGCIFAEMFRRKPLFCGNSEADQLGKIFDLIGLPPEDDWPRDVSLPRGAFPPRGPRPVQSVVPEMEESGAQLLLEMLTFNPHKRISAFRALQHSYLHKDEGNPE
Chain of Proto-oncogene tyrosine-protein kinase Src (P12931 2-536 limits assumed): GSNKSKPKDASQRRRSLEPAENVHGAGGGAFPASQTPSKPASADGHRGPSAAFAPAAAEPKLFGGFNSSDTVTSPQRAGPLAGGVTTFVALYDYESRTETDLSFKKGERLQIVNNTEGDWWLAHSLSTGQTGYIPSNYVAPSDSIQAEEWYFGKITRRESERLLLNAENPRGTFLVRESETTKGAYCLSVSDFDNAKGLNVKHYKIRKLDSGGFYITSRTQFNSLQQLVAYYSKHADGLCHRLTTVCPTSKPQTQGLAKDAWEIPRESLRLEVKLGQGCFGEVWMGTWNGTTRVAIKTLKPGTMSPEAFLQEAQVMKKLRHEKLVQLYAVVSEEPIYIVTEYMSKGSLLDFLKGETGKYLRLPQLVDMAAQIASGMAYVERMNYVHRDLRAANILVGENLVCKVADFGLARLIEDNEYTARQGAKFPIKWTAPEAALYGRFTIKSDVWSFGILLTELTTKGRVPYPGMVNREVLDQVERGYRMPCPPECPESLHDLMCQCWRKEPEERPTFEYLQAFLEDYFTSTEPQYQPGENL
Chain of Fibroblast growth factor receptor 1 (P11362 whole entry): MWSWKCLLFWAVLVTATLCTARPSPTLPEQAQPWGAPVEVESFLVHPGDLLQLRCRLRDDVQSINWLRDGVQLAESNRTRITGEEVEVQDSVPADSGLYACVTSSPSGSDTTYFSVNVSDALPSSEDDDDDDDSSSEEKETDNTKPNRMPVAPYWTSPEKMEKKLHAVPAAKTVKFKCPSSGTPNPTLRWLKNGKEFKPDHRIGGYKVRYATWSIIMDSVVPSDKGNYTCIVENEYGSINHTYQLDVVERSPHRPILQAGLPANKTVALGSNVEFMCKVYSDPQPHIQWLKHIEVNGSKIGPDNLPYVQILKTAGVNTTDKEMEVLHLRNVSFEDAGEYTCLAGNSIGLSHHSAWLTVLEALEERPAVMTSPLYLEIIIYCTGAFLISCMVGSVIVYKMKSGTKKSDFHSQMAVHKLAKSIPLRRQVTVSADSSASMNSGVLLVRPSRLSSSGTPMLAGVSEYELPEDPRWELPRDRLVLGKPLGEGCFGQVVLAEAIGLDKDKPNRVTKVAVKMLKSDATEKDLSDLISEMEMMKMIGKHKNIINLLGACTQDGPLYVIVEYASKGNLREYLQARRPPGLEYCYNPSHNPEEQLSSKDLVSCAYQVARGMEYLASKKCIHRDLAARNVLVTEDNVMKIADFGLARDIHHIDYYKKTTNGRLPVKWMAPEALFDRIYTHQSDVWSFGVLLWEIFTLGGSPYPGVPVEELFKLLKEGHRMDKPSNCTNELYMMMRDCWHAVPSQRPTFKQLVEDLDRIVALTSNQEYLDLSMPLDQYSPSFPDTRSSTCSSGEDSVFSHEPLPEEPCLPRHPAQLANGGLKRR
Chain of Mitogen-activated protein kinase 1/3 (P28482 whole entry): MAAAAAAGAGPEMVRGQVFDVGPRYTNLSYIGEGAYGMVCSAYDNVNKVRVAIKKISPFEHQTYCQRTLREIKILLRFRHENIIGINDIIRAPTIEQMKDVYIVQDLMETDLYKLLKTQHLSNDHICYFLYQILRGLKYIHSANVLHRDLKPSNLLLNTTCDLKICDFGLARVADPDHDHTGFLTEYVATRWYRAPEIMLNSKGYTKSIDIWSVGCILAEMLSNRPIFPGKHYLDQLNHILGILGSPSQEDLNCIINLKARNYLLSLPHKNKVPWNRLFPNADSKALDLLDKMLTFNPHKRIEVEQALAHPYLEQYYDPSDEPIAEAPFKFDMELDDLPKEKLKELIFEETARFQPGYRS
Chain of Mitogen-activated protein kinase 1/3 (P27361 whole entry): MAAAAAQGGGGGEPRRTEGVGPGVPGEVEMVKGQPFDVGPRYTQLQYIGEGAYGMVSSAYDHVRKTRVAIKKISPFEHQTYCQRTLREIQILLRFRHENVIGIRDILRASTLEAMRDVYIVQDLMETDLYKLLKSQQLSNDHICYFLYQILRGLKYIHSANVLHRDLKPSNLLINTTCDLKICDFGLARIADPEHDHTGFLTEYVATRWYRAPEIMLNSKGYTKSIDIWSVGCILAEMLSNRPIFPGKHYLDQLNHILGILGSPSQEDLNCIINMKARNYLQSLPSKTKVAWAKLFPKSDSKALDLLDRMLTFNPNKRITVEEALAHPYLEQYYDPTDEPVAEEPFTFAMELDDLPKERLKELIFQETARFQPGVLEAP

Row | SMILES | IC50 [1] | IC50 [2] | IC50 [3] | IC50 ([4]; pH 7.4, 25 °C) | IC50 [4] | IC50 [5] | IC50 (Protein kinase C (PKC)) | IC50 [6]
1 | Cc1c(C)c(C)c(-c2cc3cnc(N)nc3nc2NC(=O)NC(C)(C)C)c(C)c1C [1-[2-amino-6-(2,3,4,5,6-pentamethylphenyl)pyrido[2,3-d]pyrimidin-7-yl]-3-tert-butylurea] | > 50 µM | > 50 µM | 1.62 µM | > 50 µM |  |  |  | 
2 | CCOc1cc(OCC)cc(-c2cc3cnc(N)nc3nc2NC(=O)NC(C)(C)C)c1 [1-[2-amino-6-(3,5-diethoxyphenyl)pyrido[2,3-d]pyrimidin-7-yl]-3-tert-butylurea] | > 50 µM | > 50 µM | 1.65 µM |  | > 50 µM |  |  | 
3 | CN(C)c1cc(-c2cc3cnc(N)nc3nc2NC(=O)NC(C)(C)C)cc(N(C)C)c1 | > 50 µM | > 50 µM | 16 µM |  | > 50 µM |  |  | 
4 | CC(C)(C)NC(=O)Nc1nc2nc(N)ncc2cc1-c1c(F)cccc1F [1-[2-amino-6-(2,6-difluorophenyl)pyrido[2,3-d]pyrimidin-7-yl]-3-tert-butylurea] | 1.67 µM | 0.8 µM | 0.11 µM | 1.67 µM |  |  |  | 
5 | Cc1cc(C)c(C)c(-c2cc3cnc(N)nc3nc2NC(=O)NC(C)(C)C)c1C [1-[2-amino-6-(2,3,5,6-tetramethylphenyl)pyrido[2,3-d]pyrimidin-7-yl]-3-tert-butylurea] | > 50 µM |  |  | > 50 µM |  | > 40 µM | > 50 µM | > 50 µM
6 | Cc1ccccc1-c1cc2cnc(N)nc2nc1NC(=O)NC(C)(C)C [1-[2-amino-6-(2-methylphenyl)pyrido[2,3-d]pyrimidin-7-yl]-3-tert-butylurea] | 1.05 µM |  |  | 1.05 µM |  |  |  | 
7 | CC(C)(C)NC(=O)Nc1nc2nc(N)ncc2cc1-c1c(Br)cccc1Br [1-[2-Amino-6-(2,6-dibromo-phenyl)-pyrido-[2,3-d]pyrimidin-7-yl]-3-tert-butyl-urea] | 1.42 µM | 0.21 µM | 0.29 µM | 1.42 µM |  |  |  | 
8 | CCc1cc(CC)cc(-c2cc3cnc(N)nc3nc2NC(=O)NC(C)(C)C)c1 [1-[2-amino-6-(3,5-diethylphenyl)pyrido[2,3-d]pyrimidin-7-yl]-3-tert-butylurea] | > 50 µM | > 50 µM | 7.76 µM | > 50 µM |  |  |  | 
9 | CC(C)(C)NC(=O)Nc1nc2nc(N)ncc2cc1-c1c(Cl)ccc(Cl)c1Cl [1-[2-amino-6-(2,3,6-trichlorophenyl)pyrido[2,3-d]pyrimidin-7-yl]-3-tert-butylurea] | 2.96 µM |  | 0.11 µM | 2.96 µM |  |  |  | 
10 | CC(C)(C)NC(=O)Nc1nc2nc(N)ncc2cc1-c1c(Cl)cccc1Cl | 1.25 µM |  |  | 1.25 µM |  | > 50 µM |  | 7.1 µM
11 | CC(C)(C)NC(=O)Nc1nc2nc(N)ncc2cc1-c1cc(F)cc(F)c1 [1-[2-amino-6-(3,5-difluorophenyl)pyrido[2,3-d]pyrimidin-7-yl]-3-tert-butylurea] | 8.97 µM | 1.35 µM | 1.1 µM | 8.97 µM |  |  |  | 
12 | Cc1cc(C)c(-c2cc3cnc(N)nc3nc2NC(=O)NC(C)(C)C)c(C)c1 [1-[2-amino-6-(2,4,6-trimethylphenyl)pyrido[2,3-d]pyrimidin-7-yl]-3-tert-butylurea] | 1.47 µM | 0.36 µM | 0.27 µM | 1.47 µM |  |  |  | 
13 | COc1ccccc1-c1cc2cnc(N)nc2nc1NC(=O)NC(C)(C)C [1-[2-amino-6-(2-methoxyphenyl)pyrido[2,3-d]pyrimidin-7-yl]-3-tert-butylurea] | 4.48 µM | 10.4 µM |  | 4.48 µM |  |  |  | 
14 | Cc1cccc(-c2cc3cnc(N)nc3nc2NC(=O)NC(C)(C)C)c1C [1-[2-amino-6-(2,3-dimethylphenyl)pyrido[2,3-d]pyrimidin-7-yl]-3-tert-butylurea] | 6.05 µM |  |  | 6.05 µM |  |  |  | 
15 | Cc1cc(C)cc(-c2cc3cnc(N)nc3nc2NC(=O)NC(C)(C)C)c1 [1-[2-amino-6-(3,5-dimethylphenyl)pyrido[2,3-d]pyrimidin-7-yl]-3-tert-butylurea] | 52.9 µM | > 50 µM | 1.13 µM | 52.9 µM |  |  |  | 
16 | CCN(CC)CCOc1ccc(C)c(-c2cc3cnc(N)nc3nc2NC(=O)NC(C)(C)C)c1C [1-(2-amino-6-{3-[2-(diethylamino)ethoxy]-2,6-dimethylphenyl}pyrido[2,3-d]pyrimidin-7-yl)-3-tert-butylurea] | 11.8 µM | 1.65 µM | 0.89 µM | 11.8 µM |  |  |  | 
17 | Cc1ccc(-c2cc3cnc(N)nc3nc2NC(=O)NC(C)(C)C)cc1 [1-[2-amino-6-(4-methylphenyl)pyrido[2,3-d]pyrimidin-7-yl]-3-tert-butylurea] | 6.31 µM | 17.5 µM | 1.67 µM | 6.31 µM |  |  |  | 
18 | COc1cc(OC)cc(-c2cc3cnc(N)nc3nc2NC(=O)NC(C)(C)C)c1 [6-arylpyrido[2,3-d]pyrimidine deriv. 25] |  |  | 0.06 µM |  |  | > 40 µM |  | 
19 | CC(C)(C)NC(=O)Nc1nc2nc(N)ncc2cc1-c1cc(C(F)(F)F)cc(C(F)(F)F)c1 [1-{2-amino-6-[3,5-bis(trifluoromethyl)phenyl]pyrido[2,3-d]pyrimidin-7-yl}-3-tert-butylurea] | > 50 µM | > 50 µM | > 50 µM | > 50 µM |  |  |  | 
20 | CCc1ccccc1-c1cc2cnc(N)nc2nc1NC(=O)NC(C)(C)C [1-[2-amino-6-(2-ethylphenyl)pyrido[2,3-d]pyrimidin-7-yl]-3-tert-butylurea] | 4.48 µM | 10.4 µM | 11.2 µM | 4.48 µM |  |  |  | 
21 | CC(C)(C)NC(=O)Nc1nc2nc(N)ncc2cc1-c1ccccc1 [1-{2-amino-6-phenylpyrido[2,3-d]pyrimidin-7-yl}-3-tert-butylurea] | 13.2 µM | 19.3 µM | 8 µM | 13.2 µM |  |  |  | 
22 | COc1ccc(-c2cc3cnc(N)nc3nc2NC(=O)NC(C)(C)C)cc1 [1-[2-amino-6-(4-methoxyphenyl)pyrido[2,3-d]pyrimidin-7-yl]-3-tert-butylurea] | 2.89 µM | > 50 µM | 3.97 µM |  | 2.89 µM |  |  | 
23 | CC(C)(C)NC(=O)Nc1nc2nc(N)ncc2cc1-c1cccc(Cl)c1Cl [1-[2-amino-6-(2,3-dichlorophenyl)pyrido[2,3-d]pyrimidin-7-yl]-3-tert-butylurea] | 2.26 µM | 4.41 µM | 0.16 µM | 2.26 µM |  |  |  | 
24 | COc1cccc(-c2cc3cnc(N)nc3nc2NC(=O)NC(C)(C)C)c1 [1-[2-amino-6-(3-methoxyphenyl)pyrido[2,3-d]pyrimidin-7-yl]-3-tert-butylurea] | 22.9 µM |  | 0.36 µM |  | 22.9 µM |  |  | 
25 | CCOc1cccc(-c2cc3cnc(N)nc3nc2NC(=O)NC(C)(C)C)c1 [1-[2-amino-6-(3-ethoxyphenyl)pyrido[2,3-d]pyrimidin-7-yl]-3-tert-butylurea] | 23 µM | > 50 µM | 0.67 µM |  | 23 µM |  |  | 
26 | CC(C)(C)NC(=O)Nc1nc2nc(N)ncc2cc1-c1c(Cl)cccc1Br [1-[2-amino-6-(2-bromo-6-chlorophenyl)pyrido[2,3-d]pyrimidin-7-yl]-3-tert-butylurea] | 0.62 µM | 0.21 µM |  | 0.62 µM |  |  |  | 
27 | COc1ccc(-c2cc3cnc(N)nc3nc2NC(=O)NC(C)(C)C)cc1OC [1-[2-amino-6-(3,4-dimethoxyphenyl)pyrido[2,3-d]pyrimidin-7-yl]-3-tert-butylurea] | > 50 µM | > 50 µM | 20.2 µM |  | > 50 µM |  |  | 
